The text below walks through data of PubChem BioAssay (NCI).

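Tested at 5 concentrations; 48 h exposure; 96-well plates; endpoints linearly interpolated, else capped at highest concentration. TGI marks complete inhibition of growth.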 A value given as a limit tells only on which side of the number the result lay.

Some test systems named below: DLD-1 colon; HCT-15 colon; HL-60(TB) leukemia; SNB-19 CNS; HOP-92 NSCLC; MDA-MB-231 breast; MOLT-4 leukemia; NCI-H460 lung; SF-295 CNS; M19-MEL melanoma; LXFL 529 NSCLC; HOP-18 NSCLC.
Common to all, as to assay: growth of human tumour cells (NCI), 48 h

As to `Cc1oc2c(c1C(=O)c1ccccc1)C(=O)c1ccccc1C2=O`, the TGI in the experiment with DLD-1 colon turned out to be 10 µM; in the experiment with HCT-15 colon it was 18.7 µM; in the experiment on HL-60(TB) leukemia it was 17.1 µM; with SNB-19 CNS it was 23.7 µM; with HOP-92 NSCLC it was 4.65 µM; with MDA-MB-231 breast, 7.07 µM. The TGI with MOLT-4 leukemia was determined as 6.38 µM; in the experiment with NCI-H460 lung it was 34.2 µM; in the experiment with SF-295 CNS, 22.1 µM; with M19-MEL melanoma, 4.93 µM; in the experiment on LXFL 529 NSCLC, 3.1 µM; in the experiment on HOP-18 NSCLC, 30.4 µM.
On to `N/C(=N\C(=S)N1CCCCC1)N1CCCCC1`, for which the TGI in the experiment with DLD-1 colon, in the experiment with HCT-15 colon, with HL-60(TB) leukemia, with SNB-19 CNS, in the experiment with HOP-92 NSCLC and with MOLT-4 leukemia was over 100 µM in each case. For the same molecule, the TGI in the experiment with NCI-H460 lung, in the experiment on SF-295 CNS, in the experiment on M19-MEL melanoma, in the experiment on LXFL 529 NSCLC and in the experiment with HOP-18 NSCLC was over 100 µM throughout.
For `O=C1CCC(=O)c2cc(Br)ccc2N1`, the TGI with DLD-1 colon, with HCT-15 colon, in the experiment on HL-60(TB) leukemia, with SNB-19 CNS, in the experiment with HOP-92 NSCLC and in the experiment with MOLT-4 leukemia was over 100 µM each time. The TGI with NCI-H460 lung, in the experiment on SF-295 CNS, in the experiment with M19-MEL melanoma, in the experiment on LXFL 529 NSCLC and in the experiment on HOP-18 NSCLC was over 100 µM in each case.
Regarding `O=C(O)C1Cc2nc[nH]c2CN1` (stereo unspecified), the TGI in the experiment on DLD-1 colon, in the experiment with HCT-15 colon, in the experiment on HL-60(TB) leukemia, in the experiment with SNB-19 CNS, with HOP-92 NSCLC and with MOLT-4 leukemia was over 100 µM each time. Further, the TGI with NCI-H460 lung, with SF-295 CNS, with M19-MEL melanoma, in the experiment on LXFL 529 NSCLC and in the experiment with HOP-18 NSCLC was over 100 µM in each case.
Turning to `COC1OC(C)C(OC(=O)C(C)(C)C)C(C)(O)C1O` (stereo unspecified), the TGI in the experiment with DLD-1 colon, in the experiment with HCT-15 colon, with HL-60(TB) leukemia, in the experiment on SNB-19 CNS, with HOP-92 NSCLC and in the experiment with MOLT-4 leukemia was over 100 µM each time. For the same molecule, the TGI in the experiment on NCI-H460 lung, in the experiment with SF-295 CNS, with M19-MEL melanoma, in the experiment with LXFL 529 NSCLC and in the experiment with HOP-18 NSCLC was over 100 µM each time.
